# Data: publication PMC6372612, “Immunoglobulin G modulation of the melanocortin 4 receptor signaling in obesity and eating disorders” (Translational Psychiatry, 2019)
# “Also recorded” adds a separate entry of the source.
# Legend:
# [1] = cited from earlier work
# Source text: In fact, the role of both the N- and C-terminals of α-MSH in binding to different MCR subtypes has been shown, with the C-terminal being essential for MC4R recognition. Thus hiding of the C-terminal by IgG in OB patients appears as a negative modulator of α-MSH/IgG IC activation of MC4R. […] 12–13 of the α-MSH C-terminal have also been detected in narcolept ...
# human MC4R = assay: cAMP production by MC4R-expressing HEK 293 cells; assay type: cell-based; details: AgRP 100 nM, 45 min preincubation or co-administered; n = 2/group
# [2] = biological target: human melanocortin 4 receptor (human) (UniProt P32245)
# [3] = biological target: human melanocortin 4 receptor (human) (UniProt P32245); assay: SPR; BIAcore 1000; hMC4R-expressing HEK 293 cells coated on the biosensor surface; analyte α-MSH in immune complex with IgG from obese patients; Langmuir 1:1 fit after blank subtraction
# wild-type C57Bl/6 mice = assay: Food intake in wild-type mice after IP α-MSH; assay type: in vivo, mouse; details: α-MSH 100 µg/kg IP, beginning of dark phase; vs basal food intake; n = 6
# Protocol: Rag^−/− mice (n = 6), bred in a specific-pathogen-free area, were generously provided by Professor Olivier Boyer and a person, Inserm 1234, Rouen. Rag^−/− and C57Bl/6 male mice were individually housed in BioDaq® cages (Research Diets Inc., New Brunswick, NJ, USA) for 7 days, and the basal food intake of each animal was measured during the first 4 h of the dark phase. At day 8, IP injections of α-MSH (100 µg/kg, Bachem) were performed at the beginning of the dark phase. Individual food intake after injection was compared to the basal food intake of the pretreatment period.
# Upon arrival into the animal facility, male C57Bl/6 mice (7 weeks – n=6) purchased from Janvier Labs and Rag^-/- mice (generated by the Inserm UMR905 laboratory in a specific-pathogen-free area, n=6) were housed in standard cages (3 mice per cage) in environmental conditions (23 ± 1 °C, 12:12 h light-dark cycle) with standard pellet rodent chow and water available ad libitum. After 7 days of acclimatization, animals were individually housed in BioDaq® cages (Research Diets Inc., New Brunswick, NJ, USA) that provide automatic food intake measurements. During 7 days, the basal food intake of each animal was measured during the first 4 hours of the dark phase. At day 8, intraperitoneal injections of a-MSH (100 µg/kg, Bachem) were performed at the beginning of the dark phase. […]
# [4] = test system: control HEK 293 cells lacking MC4R; assay: cAMP production by control HEK 293 cells lacking MC4R; details: 15 min at 23 °C
# male Sprague-Dawley rats = assay: Food intake in rats after intra-PVN injection of α-MSH or α-MSH/IgG IC; assay type: in vivo, rat; details: intra-PVN 2 µL α-MSH 2.5 mg/mL; 12-h fasted rats; vs aCSF
# Protocol: Animal care and experimentation were in accordance with guidelines established by the National Institutes of Health, French and European Community regulations (Official Journal of the European Community L 358, 18/12/1986) and the study was approved by a Regional Ethical Committee (Rouen, France). Sample sizes were selected based on previous experiments. Non-randomized male Sprague-Dawley rats were anesthetized by ketamine (75 mg/kg, Virbac, Carros, France)/xylazine (5 mg/kg, Bayer, Leverkusen, France) solution (3:1 vol., 0.1 mL/100 g, intraperitoneal (IP)) and were stereotaxically implanted with a 9-mm guide cannula (PlasticsOne, Roanoke, VA, USA) into the paraventricular nucleus (PVN). Upon awakening, rats were individually maintained in metabolic cages (Techniplast, Louviers, France) for 5–6 days. […] Food intake was measured 30 min and 2 h after injection.
# Animal care and experimentation were in accordance with guidelines established by the National Institutes of Health, French and European Community regulations (Official Journal of the European Community L 358, 18/12/1986). […] Food intake was measured 30 min and 2 h after injection. […]
# Chain of human melanocortin 4 receptor (human) (P32245 whole entry): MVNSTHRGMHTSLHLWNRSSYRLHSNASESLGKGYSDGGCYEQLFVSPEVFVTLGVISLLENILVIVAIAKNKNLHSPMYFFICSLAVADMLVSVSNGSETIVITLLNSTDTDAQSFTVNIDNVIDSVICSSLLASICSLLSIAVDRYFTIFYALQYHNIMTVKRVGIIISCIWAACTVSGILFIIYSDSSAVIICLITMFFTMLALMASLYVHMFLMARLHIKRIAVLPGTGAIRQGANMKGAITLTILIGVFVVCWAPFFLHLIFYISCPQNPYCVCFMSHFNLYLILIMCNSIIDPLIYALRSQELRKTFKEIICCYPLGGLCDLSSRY
substance,measurement,setting,value
adrenocorticotropic hormone [ACTH],functional activity when central part of ACTH is bound by IgG,[1],preserved its functional activity to stimulate cortisol secretion
"agouti-related protein (SSRRCVRLHESCLGQQVPCCDPCATCYCRFFNAFCYCRKLGTAMNPCSRT; UniProt O00253 83-132, looked up) [AgRP]",antagonism of α-MSH- and α-MSH/IgG IC-induced cAMP production,human MC4R,antagonized both α-MSH- and α-MSH/IgG IC-induced cAMP production
α-melanocyte-stimulating hormone (peptide),"EC50 of cAMP release by hMC4R-expressing HEK 293 cells, IC formed by α-MSH and IgG from controls and ED patients, against free α-MSH",[2],50%
same,fold lower affinity than in IC with IgG from controls,[3],10 fold
α-melanocyte-stimulating hormone [α-MSH],4-h food intake in wild-type mice,wild-type C57Bl/6 mice,significantly reduced food intake
same,"cAMP production by control HEK 293 cells lacking MC4R, in words",[4],no significant α-MSH-induced cAMP production; also recorded: did not observe cAMP production
same,"anorexigenic effect, cumulative food intake at 30 min",male Sprague-Dawley rats,significant anorexigenic effect
same,"anorexigenic effect, cumulative food intake at 120 min",male Sprague-Dawley rats,significant anorexigenic effect
